Results from patent publication US8455491B2, “6-cycloamino-3-(pyridazin-4-yl)imidazo[1,2-b]pyridazine and derivatives and pharmaceutical compositions comprising the same” (Sanofi, priority 2007, dated 2013).

Columns and labels:
human CK1 delta = target: T1, human CK1 delta (Homo sapiens, UniProt P48730); assay: FRET fluorescence test (Z'Lyte kinase assay Kit), CK1 delta; type: biochemical; details: peptide substrate SER/THR 11 2 μM, ATP 4 times the KM
T1 construct: purchased Invitrogen Corporation PV3665
From the text: The capacity of the compounds of the invention to inhibit the phosphorylation of casein by casein kinase 1 epsilon and delta may be evaluated using a FRET (“Fluorescence Resonance Energy Transfer) fluorescence test with the aid of the “Z′Lyte™ kinase assay Kit” (reference PV3670; Invitrogen Corporation™) according to the manufacturer's instructions.
The casein kinases 1 used are obtained from Invitrogen Corporation (human CK1 epsilon PV3500 and human CK1 delta PV3665).
A peptide substrate, labeled at both ends with a fluorophore donor group (coumarin) and a fluorophore acceptor group ([…]) constituting a FRET system is phosphorylated in the presence of ATP by casein kinase 1 epsilon or delta in the presence increasing concentrations of compounds of the invention. The mixture is treated with a site-specific protease that specifically cleaves the peptide substrate to form two fluorescent fragments having a large fluorescence emission ratio.
The fluorescence observed is thus related to the capacity of the products of the invention to inhibit the phosphorylation of the peptide substrate by casein kinase 1 epsilon or casein kinase 1 delta.
The compounds of the invention are dissolved at different concentrations starting with a 10 mM stock solution in DMSO diluted in a buffer containing 50 mM HEPS, pH 7.5, 1 m MEGTA, 0.01% Brij-35, 10 mM MgCl for casein kinase 1 epsilon and supplemented with Trizma Base (50 mM), pH 8.0, and NaN3 (0.01% final) for casein kinase 1 delta.
The phosphorylation of the peptide substrate SER/THR 11 obtained from Invitrogen Corporation™ is performed at a final concentration of 2 μM. The ATP concentration is 4 times the KM, this value being 2 μM for casein kinase 1 epsilon and 4 μM for casein kinase 1 delta.
The emitted fluorescence is measured at wavelengths of 445 and 520 nm (excitation at 400 nm).

[1] = test system: Mper1-luc Rat-1 (P2C4) fibroblasts; assay: Circadian cell assay (mPer1-luciferase reporter, period prolongation); type: cell-based; details: effective concentration that induced a 1-hour prolongation of the circadian period, interpolated from hyperbolic curve
Experimental: Experimental Protocols for Circadian Cell Assay
Mper1-luc Rat-1 (P2C4) fibroblast cultures were prepared by dividing the cultures every 3-4 days (approximately 10-20% of confluence) on 150 cm^2 degassed polystyrene tissue culture flasks (Falcon® #35-5001) and maintained in growth medium [EMEM (Cellgro #10-010-CV); 10% fetal bovine serum (FBS; Gibco #16000-044); and 50 I.U./ml of penicillin-streptomycin (Cellgro #30-001-CI)] at 37° C. and under 5% CO2.
Cells obtained from Rat-1 fibroblast cultures at 30-50% of confluence as described above were co-transfected with vectors containing the selection marker for resistance to zeocin for a stable transfection and a luciferase reporter gene controlled by the mPer-1 promoter. After 24 to 48 hours, the cultures were divided on 96-well plates and maintained in growth medium supplemented with 50-100 μg/ml of zeocin (Invitrogen® #45-0430) for 10-14 days. The zeocin-resistant stable transfectants were evaluated for the expression of the reporter by adding 100 μM lucerfin (Promega® #E1603®) to the growth medium and by assaying the luciferase activity on a TopCount® scintillation counter (Packard Model #C384V00). The Rat-1 cell clones expressing both zeocin resistance and lucerifase activity controlled by mPer1 were serum-shock synchronized with 50% horse serum [HS (Gibco® #16050-122)] and the activity of the circadian reporter was evaluated. The P2C4 clone of Mper1-luc Rat-1 fibroblasts was selected to test the compound.
Mper1-luc Rat-1 (P2C4) fibroblasts at 40-50% of confluence, obtained according to the protocol described above, were plated out onto 96-well opaque tissue culture plates (Perkin Elmer® #6005680). The cultures are maintained in growth medium supplemented with 100 μg/ml of zeocin (Invitrogen #45-0430) until they reach 100% of confluence (48-72 h). The cultures were then synchronized with 100 μl of synchronization medium [EMEM (Cellgro #10-010-CV); 100 I.U./ml of penicillin-streptomycin (Cellgro #30-001-C1); 50% HS (Gibco #16050-122)] for 2 hours at 37° C. and under 5% CO2. After synchronization, the cultures were rinsed with 100 μl of EMEM (Cellgro #10-010-CV) for 10 minutes at ambient temperature. […]
The period analysis was performed either by determining the interval between the relative light emission minima over several days or by Fourier transform. […] The data were analyzed by adjusting a hyperbolic curve to the data expressed as change of period (y-axis) as a function of the concentration of the test compound (x-axis) in the XLfit™ software and the CE Delta (t+1 h) was interpolated from this curve.

[2] = target: T2, casein kinase 1 epsilon (CK1 epsilon) (Homo sapiens, UniProt P49674); assay: Filter-plate assay of ATP-33P, inhibition of casein phosphorylation by CK1 epsilon; type: biochemical; details: casein substrate, ATP 10 μM, 2 hours at ambient temperature
T2 construct: Invitrogen Corporation (named as alternative)
Experimental: The capacity of the compounds of the invention to inhibit the phosphorylation of casein by casein kinase 1 epsilon and delta may be evaluated according to the procedure described in US 2005/0131012.
Filter-Plate Assay of ATP-^33P for the Screening of CK1 Epsilon Inhibitors:
The effect of the compounds on inhibition of the phosphorylation of casein by the enzyme casein kinase 1 epsilon (CK1 epsilon) is measured, using a casein assay with filtration of ATP-^33P in vitro.
Casein kinase 1 epsilon (0.58 mg/ml) is obtained via fermentation and purification processes performed according to methods that are well known to those skilled in the art, or may also be obtained from Invitrogen Corporation™ (human CK1 epsilon).
The compounds are tested at five different concentrations so as to generate IC50 values, i.e. the concentration at which a compound is capable of inhibiting the enzymatic activity by 50%, or alternatively the percentage of inhibition at a concentration of 10 micromolar.
“U”-bottomed Falcon plates are prepared by placing 5 μL of solutions of the compounds according to the invention at concentrations of 10, 1, 0.1, 0.01 or 0.001 μM in various wells. The solutions of the compounds according to the invention at these various concentrations are prepared by diluting in a test buffer (50 mM Tris, pH 7.5, […], 2 mM DTT and 1 mM EGTA) a stock solution in DMSO at a concentration of 10 mM. Next, 5 μL of dephosphorylated casein are added to a final concentration of 0.2 μg/μL, 20 μl of CK1 epsilon to a final concentration of 3 ng/μl, and 20 μl of ATP-^33P to a final concentration of 0.02 μCi/μl mixed with cold ATP (10 μM final—approximately 2×10^6 CPM per well). The final total test volume per well is equal to 50 μl.
The “U”-bottomed Falcon® test plate mentioned above is vortexed, and then incubated at ambient temperature for 2 hours. After 2 hours, the reaction is stopped by adding an ice-cold solution of 65 μl of ATP (2 mM) prepared in test buffer.
100 μl of the reaction mixture are then transferred from the “U”-bottomed Falcon® plate into Millipore® MAPH filter plates, preimpregnated with 25 μl of ice-cold 100% TCA. […]
The plates are left to dry overnight at ambient temperature. […] The radiation emitted by each well is then measured for 2 minutes in a Packard® Topcount NXT scintillation counter, in which the values of CPM/well are measured.
The percentage inhibition of the capacity of the enzyme to phosphorylate the substrate (casein) is determined for each concentration of compound tested. These inhibition data expressed as percentages are used to calculate the IC50 value for each compound compared with the controls.
The kinetic studies determined the KM value for ATP as being 21 μM in this test system.

T1 sequence (P48730 whole entry): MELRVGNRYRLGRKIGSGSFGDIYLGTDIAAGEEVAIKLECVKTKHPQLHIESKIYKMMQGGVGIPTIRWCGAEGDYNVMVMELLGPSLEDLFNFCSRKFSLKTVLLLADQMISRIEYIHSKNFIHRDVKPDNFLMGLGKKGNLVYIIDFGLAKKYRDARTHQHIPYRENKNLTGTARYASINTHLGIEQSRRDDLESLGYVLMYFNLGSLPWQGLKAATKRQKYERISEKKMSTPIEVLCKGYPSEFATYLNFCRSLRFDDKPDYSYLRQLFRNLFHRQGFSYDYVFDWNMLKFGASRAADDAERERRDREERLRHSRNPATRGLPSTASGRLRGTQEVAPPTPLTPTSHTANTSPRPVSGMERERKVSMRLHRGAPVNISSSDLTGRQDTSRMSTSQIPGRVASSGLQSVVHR
T2 sequence (P49674 whole entry): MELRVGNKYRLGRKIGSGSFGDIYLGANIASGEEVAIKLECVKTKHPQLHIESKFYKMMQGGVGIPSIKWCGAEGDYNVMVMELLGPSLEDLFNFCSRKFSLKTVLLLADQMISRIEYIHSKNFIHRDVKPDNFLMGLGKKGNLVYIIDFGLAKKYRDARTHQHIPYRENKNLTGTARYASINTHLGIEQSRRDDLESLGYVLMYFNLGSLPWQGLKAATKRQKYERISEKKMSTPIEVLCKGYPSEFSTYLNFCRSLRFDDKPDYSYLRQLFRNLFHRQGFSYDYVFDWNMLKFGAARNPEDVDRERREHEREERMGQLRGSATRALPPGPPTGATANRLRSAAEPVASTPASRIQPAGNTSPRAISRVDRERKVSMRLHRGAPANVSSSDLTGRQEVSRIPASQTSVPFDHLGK

| SMILES | IC50 (human CK1 delta) [µM] | melting point [°C] | IC50 [2] [µM] | CE Delta (t + 1 h) [1] [nM] |
| --- | --- | --- | --- | --- |
| CC(C)N1CCN(c2ccc3nc(-c4ccc(F)cc4)c(-c4ccnnc4)n3n2)CC1 [Compound No. 11, 2-(4-fluorophenyl)-6-(4-isopropyl-piperazin-1-yl)-3-(pyridazin-4-yl)imidazo[1,2-b]pyridazine] | 0.05 to 0.065 | – | – | – |
| Fc1ccc(-c2nc3ccc(N4CCNCC4)nn3c2-c2ccnnc2)cc1 [Compound No. 1, 2-(4-fluorophenyl)-6-(piperazin-1-yl)-3-(pyridazin-4-yl)imidazo[1,2-b]pyridazine] | 0.001 | – | – | – |
| C[C@@H]1CN(c2ccc3nc(-c4ccc(F)cc4)c(-c4ccnnc4)n3n2)CCN1 [Compound No. 2, 2-(4-fluorophenyl)-6-((R)-3-methylpiperazin-1-yl)-3-(pyridazin-4-yl)imidazo[1,2-b]pyridazine] | – | – | – | 164 |

Continued, in another order:

| IC50 (human CK1 delta) [µM] | melting point [°C] | IC50 [2] [µM] | SMILES | CE Delta (t + 1 h) [1] [nM] |
| --- | --- | --- | --- | --- |
| – | 192 to 194 | – | CC(C)N1CCN(c2ccc3nc(-c4ccc(F)c(F)c4)c(-c4ccnnc4)n3n2)CC1 [compound 14, 2-(3,4-difluorophenyl)-6-(4-isopropylpiperazin-1-yl)-3-pyridazin-4-yl-imidazo[1,2-b]pyridazine] | 62 |
| – | 205 to 212 | 0.098 | OCC1CN(c2ccc3nc(-c4ccc(F)cc4)c(-c4ccnnc4)n3n2)CCN1 (racemic) [compound 39, (+/−)-{4-[2-(4-fluorophenyl)-3-pyridazin-4-ylimidazo[1,2-b]pyridazin-6-yl]piperazin-2-yl}methanol] | 178 |
